According to patent publication US20250376483A1, “PRODRUGS OF PAN-KRAS INHIBITORS” (Mirati Therapeutics, Inc., priority 2022, published 2025):

Experiments:
[1] = Whole Blood Stability Assay (mouse whole blood); assay type: in vitro ADME; conditions: CD-1 mouse blood, EDTA-K2, final conc. 2 μM, 37° C., 0-120 min; for half-life at 2 μM: male, fresh whole blood, read-out: Mouse Whole Blood Stability t1/2
Summary of the method: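 Compound at 2 μM final was incubated at 37 °C in fresh EDTA-K2 blood from male CD-1 mice. Samples at 0, 10, 30, 60 and 120 min were protein-precipitated with acetonitrile and analysed by LC-MS/MS. % remaining was derived from analyte/internal-standard peak area ratios.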

[2] = Plasma Stability Assay (human plasma); assay type: in vitro ADME; conditions: both sexes; pooled human plasma, heparin, final conc. 2 μM, 37° C., 0-120 min; read-out: Human Plasma Stability t1/2
Summary of the method: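 Compound at 2 μM final in pooled heparinised plasma (3 male, 3 female), incubated at 37° C with sampling at 0, 10, 30, 60 and 120 min. Acetonitrile stop, LC-MS/MS; % remaining from analyte/internal-standard peak area ratio relative to T0.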

In the case of `CCc1c(F)ccc2cc(OC(=O)C34CC5CC(CC(C5)C3)C4)cc(N3CCc4c(nc(OC[C@@]56CCCN5C[C@H](F)C6)nc4N4CCC[C@]5(C4)NC(=O)NC5=O)C3)c12` [Example 63, 4-(4-((R)-2,4-dioxo-1,3,7-triazaspiro[4.5]decan-7-yl)-2-(((2R,7aS)-2-fluorotetrahydro-1H-pyrrolizin-7a(5H)-yl)methoxy)-5,8-dihydropyrido[3,4-d]pyrimidin-7(6H)-yl)-5-ethyl-6-fluoronaphthalen-2-yl (3r,5r,7r)-adamantane-1-carboxylate], the half-life at 2 μM [1] is reported as 13 min and the half-life at 2 μM [2] is reported as > 289 min.

For `CCc1c(F)ccc2cc(OC(=O)C3CCC3)cc(N3CCc4c(nc(OC[C@@]56CCCN5C[C@H](F)C6)nc4N4CCC[C@]5(C4)NC(=O)NC5=O)C3)c12` [Example 64, 4-(4-((R)-2,4-dioxo-1,3,7-triazaspiro[4.5]decan-7-yl)-2-(((2R,7aS)-2-fluorotetrahydro-1H-pyrrolizin-7a(5H)-yl)methoxy)-5,8-dihydropyrido[3,4-d]pyrimidin-7(6H)-yl)-5-ethyl-6-fluoronaphthalen-2-yl cyclobutanecarboxylate], the half-life at 2 μM [1] was 2 min and the half-life at 2 μM [2] was 33 min.

For `CCc1c(F)ccc2cc(OC(=O)C34CCC(CC3)CC4)cc(N3CCc4c(nc(OC[C@@]56CCCN5C[C@H](F)C6)nc4N4CCC[C@]5(C4)NC(=O)NC5=O)C3)c12` [Example 66, 4-(4-((R)-2,4-dioxo-1,3,7-triazaspiro[4.5]decan-7-yl)-2-(((2R,7aS)-2-fluorotetrahydro-1H-pyrrolizin-7a(5H)-yl)methoxy)-5,8-dihydropyrido[3,4-d]pyrimidin-7(6H)-yl)-5-ethyl-6-fluoronaphthalen-2-yl bicyclo[2.2.2]octane-1-carboxylate], the half-life at 2 μM [1] was 7 min and the half-life at 2 μM [2] was > 289 min.

With `CCc1c(F)ccc2cc(OC(=O)C34CCC(C3)C4)cc(N3CCc4c(nc(OC[C@@]56CCCN5C[C@H](F)C6)nc4N4CCC[C@]5(C4)NC(=O)NC5=O)C3)c12` [Example 67, 4-(4-((R)-2,4-dioxo-1,3,7-triazaspiro[4.5]decan-7-yl)-2-(((2R,7aS)-2-fluorotetrahydro-1H-pyrrolizin-7a(5H)-yl)methoxy)-5,8-dihydropyrido[3,4-d]pyrimidin-7(6H)-yl)-5-ethyl-6-fluoronaphthalen-2-yl bicyclo[2.1.1]hexane-1-carboxylate] the “Mouse Whole Blood Stability t1/2” value [1] was 1 min and the half-life at 2 μM [2] was 267 min.
